The values below come from publication PMC4770715, “LIM kinase inhibitors disrupt mitotic microtubule organization and impair tumor cell proliferation” (Oncotarget, 2015).

Some targets named below: PDPK1 (Homo sapiens, UniProt O15530); ROCK1 (Homo sapiens, UniProt Q13464); NEK5 (Homo sapiens, UniProt Q6P3R8); PRKCE (Homo sapiens, UniProt Q02156); ROCK2 (Homo sapiens, UniProt O75116); PKNB(M.tuberculosis) (Mycobacterium tuberculosis, UniProt P9WI81); PLK1 (Homo sapiens, UniProt P53350); SNRK (Homo sapiens, UniProt Q9NRH2); MAP3K1 (Homo sapiens, UniProt Q13233); NEK2 (Homo sapiens, UniProt P51955); EPHA4 (Homo sapiens, UniProt P54764); BLK (Homo sapiens, UniProt P51451); CSNK1G3 (Homo sapiens, UniProt Q9Y6M4); TNK1 (Homo sapiens, UniProt Q13470); PIK3C2B (Homo sapiens, UniProt O00750); CSNK1E (Homo sapiens, UniProt P49674); LTK (Homo sapiens, UniProt P29376); KIT(V559D) (Homo sapiens, UniProt P10721, V559D); PHKG1 (Homo sapiens, UniProt Q16816).

What all share (assay): biochemical
Holding throughout (design): KINOMEscan active-site competition binding, percent of control (100 = no competition)
Holding throughout (conditions): competition binding, percent control

A further experiment concerns the target T1, ERK1 (Homo sapiens, UniProt P27361).
T1 construct: gene MAPK3

A further experiment deals with T2, JNK3 (Homo sapiens, UniProt P53779).
T2 construct: gene MAPK10

The next experiment addresses T3, MST1 (Homo sapiens, UniProt Q13043).
T3 construct: gene STK4

Another experiment deals with T4, VEGFR2 (Homo sapiens, UniProt P35968).
T4 construct: gene KDR

ROCK1, sequence (Q13464 whole entry): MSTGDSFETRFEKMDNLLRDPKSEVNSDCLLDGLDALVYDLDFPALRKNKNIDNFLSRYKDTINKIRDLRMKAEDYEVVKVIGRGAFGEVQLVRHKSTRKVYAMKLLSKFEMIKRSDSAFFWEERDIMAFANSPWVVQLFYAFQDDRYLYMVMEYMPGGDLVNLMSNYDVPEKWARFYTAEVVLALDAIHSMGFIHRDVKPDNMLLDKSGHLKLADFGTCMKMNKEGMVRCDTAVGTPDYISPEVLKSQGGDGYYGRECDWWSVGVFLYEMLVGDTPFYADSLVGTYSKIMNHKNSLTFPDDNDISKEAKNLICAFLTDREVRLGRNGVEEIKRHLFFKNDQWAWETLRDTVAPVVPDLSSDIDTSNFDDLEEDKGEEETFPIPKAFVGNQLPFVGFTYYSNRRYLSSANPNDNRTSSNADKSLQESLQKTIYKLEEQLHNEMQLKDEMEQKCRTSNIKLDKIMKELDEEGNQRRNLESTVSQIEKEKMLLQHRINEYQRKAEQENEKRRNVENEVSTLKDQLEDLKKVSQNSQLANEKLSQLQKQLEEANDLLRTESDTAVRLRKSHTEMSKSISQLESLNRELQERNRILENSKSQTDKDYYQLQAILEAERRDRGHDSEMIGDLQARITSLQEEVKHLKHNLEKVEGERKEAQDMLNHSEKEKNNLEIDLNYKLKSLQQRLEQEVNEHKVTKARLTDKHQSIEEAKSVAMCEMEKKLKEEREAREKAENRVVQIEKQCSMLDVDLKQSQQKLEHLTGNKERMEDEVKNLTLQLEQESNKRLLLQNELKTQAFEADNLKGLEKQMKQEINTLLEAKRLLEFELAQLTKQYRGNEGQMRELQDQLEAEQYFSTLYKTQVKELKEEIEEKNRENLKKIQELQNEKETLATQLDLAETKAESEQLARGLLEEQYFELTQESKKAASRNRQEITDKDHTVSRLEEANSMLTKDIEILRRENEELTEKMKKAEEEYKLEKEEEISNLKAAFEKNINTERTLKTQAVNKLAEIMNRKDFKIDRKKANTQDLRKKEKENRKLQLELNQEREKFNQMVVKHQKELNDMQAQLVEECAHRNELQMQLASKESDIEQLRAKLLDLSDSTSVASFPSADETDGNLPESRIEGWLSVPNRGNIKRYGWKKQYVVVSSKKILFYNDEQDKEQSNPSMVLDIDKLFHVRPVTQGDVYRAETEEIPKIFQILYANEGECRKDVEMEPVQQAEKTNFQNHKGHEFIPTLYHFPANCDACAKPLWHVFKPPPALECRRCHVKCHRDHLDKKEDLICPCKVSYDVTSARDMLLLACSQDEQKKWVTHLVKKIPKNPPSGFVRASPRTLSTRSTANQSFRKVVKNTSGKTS
CSNK1G3, sequence (Q9Y6M4 whole entry): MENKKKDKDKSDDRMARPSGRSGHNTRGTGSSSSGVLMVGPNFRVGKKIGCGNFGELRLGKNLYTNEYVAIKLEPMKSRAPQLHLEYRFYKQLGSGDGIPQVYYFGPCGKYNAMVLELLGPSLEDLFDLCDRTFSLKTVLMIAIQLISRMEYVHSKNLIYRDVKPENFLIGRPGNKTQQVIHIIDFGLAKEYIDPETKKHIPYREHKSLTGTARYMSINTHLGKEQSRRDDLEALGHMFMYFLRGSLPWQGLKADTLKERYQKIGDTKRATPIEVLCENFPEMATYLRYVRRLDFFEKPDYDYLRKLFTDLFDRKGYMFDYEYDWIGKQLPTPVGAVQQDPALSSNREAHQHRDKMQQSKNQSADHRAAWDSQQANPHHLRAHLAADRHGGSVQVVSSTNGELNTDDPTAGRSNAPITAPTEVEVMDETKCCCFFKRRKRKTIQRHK
NEK2, sequence (P51955 whole entry): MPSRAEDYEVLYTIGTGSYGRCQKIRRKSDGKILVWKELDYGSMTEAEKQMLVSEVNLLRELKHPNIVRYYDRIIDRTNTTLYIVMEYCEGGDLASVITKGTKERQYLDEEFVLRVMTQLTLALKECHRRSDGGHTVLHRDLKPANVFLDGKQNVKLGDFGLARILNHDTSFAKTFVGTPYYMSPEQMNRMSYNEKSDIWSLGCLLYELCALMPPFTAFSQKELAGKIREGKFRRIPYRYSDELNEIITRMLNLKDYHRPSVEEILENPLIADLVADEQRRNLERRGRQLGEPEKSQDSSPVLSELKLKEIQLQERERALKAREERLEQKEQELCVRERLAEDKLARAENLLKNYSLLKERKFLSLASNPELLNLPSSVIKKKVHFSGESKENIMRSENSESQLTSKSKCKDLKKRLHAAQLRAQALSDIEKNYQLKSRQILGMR
NEK5, sequence (Q6P3R8 whole entry): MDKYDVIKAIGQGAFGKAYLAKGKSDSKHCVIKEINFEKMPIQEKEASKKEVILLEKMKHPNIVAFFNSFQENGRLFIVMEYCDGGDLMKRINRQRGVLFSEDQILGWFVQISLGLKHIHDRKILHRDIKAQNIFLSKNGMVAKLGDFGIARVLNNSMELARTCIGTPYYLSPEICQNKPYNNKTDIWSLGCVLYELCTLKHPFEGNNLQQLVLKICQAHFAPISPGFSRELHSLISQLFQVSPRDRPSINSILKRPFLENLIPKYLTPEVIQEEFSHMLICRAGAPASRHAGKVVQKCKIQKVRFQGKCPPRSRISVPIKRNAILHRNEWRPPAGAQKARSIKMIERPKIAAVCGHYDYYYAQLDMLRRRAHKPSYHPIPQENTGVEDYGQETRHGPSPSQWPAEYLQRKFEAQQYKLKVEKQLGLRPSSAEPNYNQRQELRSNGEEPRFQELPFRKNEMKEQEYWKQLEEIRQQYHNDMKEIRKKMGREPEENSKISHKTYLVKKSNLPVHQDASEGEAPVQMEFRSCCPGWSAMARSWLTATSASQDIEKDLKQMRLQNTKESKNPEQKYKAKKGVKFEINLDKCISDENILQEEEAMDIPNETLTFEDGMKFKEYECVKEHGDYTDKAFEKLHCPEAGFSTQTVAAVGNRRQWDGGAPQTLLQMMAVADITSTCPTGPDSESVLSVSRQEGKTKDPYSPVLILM
EPHA4, sequence (P54764 whole entry): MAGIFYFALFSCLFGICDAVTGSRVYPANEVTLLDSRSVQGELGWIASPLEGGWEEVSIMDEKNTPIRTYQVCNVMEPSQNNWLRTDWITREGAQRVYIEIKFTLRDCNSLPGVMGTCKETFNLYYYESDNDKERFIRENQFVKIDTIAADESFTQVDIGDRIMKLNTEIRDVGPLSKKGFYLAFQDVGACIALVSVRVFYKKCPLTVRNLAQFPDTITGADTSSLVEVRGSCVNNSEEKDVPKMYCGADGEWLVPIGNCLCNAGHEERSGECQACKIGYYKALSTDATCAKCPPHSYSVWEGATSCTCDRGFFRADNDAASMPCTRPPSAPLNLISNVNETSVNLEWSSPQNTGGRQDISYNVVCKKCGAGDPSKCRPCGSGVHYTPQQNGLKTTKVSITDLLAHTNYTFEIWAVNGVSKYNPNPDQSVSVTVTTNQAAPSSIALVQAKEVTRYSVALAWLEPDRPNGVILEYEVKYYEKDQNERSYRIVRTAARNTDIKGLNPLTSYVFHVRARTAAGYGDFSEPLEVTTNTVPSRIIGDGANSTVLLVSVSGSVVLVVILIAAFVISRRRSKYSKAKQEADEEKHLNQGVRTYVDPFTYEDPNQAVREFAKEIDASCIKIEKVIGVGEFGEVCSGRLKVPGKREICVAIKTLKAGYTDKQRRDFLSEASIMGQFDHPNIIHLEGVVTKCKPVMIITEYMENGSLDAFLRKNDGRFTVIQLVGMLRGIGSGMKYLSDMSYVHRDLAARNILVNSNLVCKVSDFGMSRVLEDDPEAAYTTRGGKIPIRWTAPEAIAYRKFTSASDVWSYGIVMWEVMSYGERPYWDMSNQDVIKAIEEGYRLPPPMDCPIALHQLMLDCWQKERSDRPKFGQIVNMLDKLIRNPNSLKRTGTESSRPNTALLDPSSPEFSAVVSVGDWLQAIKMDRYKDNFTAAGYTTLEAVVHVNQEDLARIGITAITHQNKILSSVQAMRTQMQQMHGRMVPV
CSNK1E, sequence (P49674 whole entry): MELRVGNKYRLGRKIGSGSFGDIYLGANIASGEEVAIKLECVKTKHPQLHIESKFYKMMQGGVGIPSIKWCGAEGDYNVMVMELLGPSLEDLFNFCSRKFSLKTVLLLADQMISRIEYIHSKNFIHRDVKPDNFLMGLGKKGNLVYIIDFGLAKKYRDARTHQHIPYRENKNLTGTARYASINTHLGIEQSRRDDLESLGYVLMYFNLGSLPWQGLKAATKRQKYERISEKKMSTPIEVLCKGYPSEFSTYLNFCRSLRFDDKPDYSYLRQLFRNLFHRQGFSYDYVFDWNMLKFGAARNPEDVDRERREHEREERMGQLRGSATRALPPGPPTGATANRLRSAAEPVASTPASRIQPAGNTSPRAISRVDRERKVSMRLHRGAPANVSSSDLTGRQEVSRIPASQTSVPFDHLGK
TNK1, sequence (Q13470 whole entry): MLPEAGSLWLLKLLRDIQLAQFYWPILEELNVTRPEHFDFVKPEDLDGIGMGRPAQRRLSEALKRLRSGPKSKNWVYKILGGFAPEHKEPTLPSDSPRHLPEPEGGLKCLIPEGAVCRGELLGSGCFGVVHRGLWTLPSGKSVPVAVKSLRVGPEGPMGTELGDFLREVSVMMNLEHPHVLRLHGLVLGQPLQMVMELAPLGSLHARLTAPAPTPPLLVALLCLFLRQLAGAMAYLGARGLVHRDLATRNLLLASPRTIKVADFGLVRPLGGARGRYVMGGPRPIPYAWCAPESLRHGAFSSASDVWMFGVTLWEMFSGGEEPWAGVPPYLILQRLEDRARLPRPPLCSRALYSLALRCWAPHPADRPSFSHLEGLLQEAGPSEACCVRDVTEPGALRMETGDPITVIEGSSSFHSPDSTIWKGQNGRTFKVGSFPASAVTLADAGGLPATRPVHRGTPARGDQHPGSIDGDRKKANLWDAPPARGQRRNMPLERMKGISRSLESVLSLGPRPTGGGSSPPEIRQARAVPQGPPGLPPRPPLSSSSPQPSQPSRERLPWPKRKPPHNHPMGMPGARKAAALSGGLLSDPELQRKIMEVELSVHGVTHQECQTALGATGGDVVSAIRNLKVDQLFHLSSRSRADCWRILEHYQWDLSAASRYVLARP

With `COc1ccc(-c2cnccc2-c2cnc(NC(=O)C(C)C)s2)c(C(F)(F)F)c1` [CRT0105446, N-{5-[3-(4-Methoxy-2-trifluoromethyl-phenyl)-pyridin-4-yl]-hiazol-2-yl}-isobutyramide], the remaining binding at 10 µM at PDPK1 came to 100%; at ERK1 it was 100%; at ROCK1, 86%; on NEK5, 99%; at PRKCE it was 72%; at ROCK2 it was 95%. Also, the remaining binding at 10 µM at PKNB(M.tuberculosis) stood at 82%; on JNK3 it was 36%; at PLK1, 100%; at SNRK it was 81%; at MAP3K1, 88%; on NEK2, 100%. Besides, the remaining binding at 10 µM at MST1 came to 100%; on EPHA4, 100%; at BLK, 100%; on CSNK1G3, 67%; on TNK1, 67%; at PIK3C2B it was 100%. Besides, the remaining binding at 10 µM at VEGFR2 is 73%; at CSNK1E, 42%; on LTK, 100%; at KIT(V559D) it was 39%; on PHKG1, 78%.

Take `Cc1ccc(-c2cnccc2-c2cnc(Nc3ccc(O)cc3)s2)c(Cl)c1` [CRT0105950, 4-{5-[3-(2-Chloro-4-methyl-phenyl)-pyridin-4-yl]-thiazol-2-ylamino}-phenol]: the remaining binding at 10 µM was 28% at PDPK1; 96% at ERK1; 79% at ROCK1; 65% at NEK5; 55% at PRKCE; 77% at ROCK2. Also, the remaining binding at 10 µM on PKNB(M.tuberculosis) was 19%; on JNK3, 25%; on PLK1, 100%; at SNRK it was 100%; on MAP3K1, 71%; on NEK2, 82%. In addition, the remaining binding at 10 µM at MST1 stood at 3.4%; at EPHA4, 94%; at BLK, 9.2%; at CSNK1G3 it was 43%; at TNK1, 3.7%; on PIK3C2B, 100%. Further, the remaining binding at 10 µM was determined as 45% on VEGFR2; 11% on CSNK1E; 100% at LTK; 0.75% at KIT(V559D); 56% at PHKG1.
